Data published in ChEMBL document CHEMBL5346925, “3,4-Dihydrobenzo[e][1,2,3]oxathiazine 2,2-dioxide analogs act as potential AMPA receptor potentiators with antidepressant activity” (Eur J Med Chem, 2023).
Active and inactive are the calls of the source. The rule behind the calls is not given here.

What was measured:
[1] = Half life in Sprague-Dawley rat at 0.1 mg/kg, iv by LC-MS/MS analysis; assay type: ADME, organism-based; conditions: in vivo
[2] = molecular target: T1, Glutamate receptor ionotropic, AMPA (Rattus norvegicus) (UniProt P19491+P19492+P19493+P19490); experiment: Agonist activity at AMPA receptor in rat Primary neuron cells assessed as increase in fluorescence level at 1 uM incubated for 1 hr by calcium 2+ influx assay relative to s-AMPA coupled TAK-137; assay type: cell-based
[3] = molecular target: Glutamate receptor ionotropic, AMPA (Rattus norvegicus, UniProt P19490+P19491+P19492+P19493); experiment: Agonist activity at AMPA receptor in rat Primary neuron cells; assay type: cell-based
[4] = Clearance in Sprague-Dawley rat at 0.1 mg/kg, iv by LC-MS/MS analysis; assay type: ADME, organism-based; conditions: in vivo
[5] = Ratio of drug concentration in brain to plasma in Sprague-Dawley rat at 1 mg/kg, po measured after 1 hrs by LC-MS/MS analysis; assay type: ADME, organism-based; conditions: read-out: BPR
[6] = MRT (0 to infinity) in Sprague-Dawley rat at 1 mg/kg, po by LC-MS/MS analysis; assay type: ADME, organism-based; conditions: in vivo
[7] = Toxicity in mouse assessed as histopathological changes in liver at 0.2 to 0.4 mg/kg, ip administered once daily for 2 weeks and measured after 15 days by H and E staining based analysis; assay type: organism-based; conditions: in vivo, 360 h, dose 0.2-0.4 mg/kg, time 15 day
[8] = Tmax in Sprague-Dawley rat at 1 mg/kg, po by LC-MS/MS analysis; assay type: ADME, organism-based; conditions: in vivo
[9] = Tmax in Sprague-Dawley rat at 0.1 mg/kg, iv by LC-MS/MS analysis; assay type: ADME, organism-based; conditions: in vivo
[10] = Toxicity in mouse assessed as histopathological changes in heart at 0.2 to 0.4 mg/kg, ip administered once daily for 2 weeks and measured after 15 days by H and E staining based analysis; assay type: organism-based; conditions: in vivo, 360 h, dose 0.2-0.4 mg/kg, time 15 day
[11] = AUC (0 to t) in Sprague-Dawley rat at 0.1 mg/kg, iv by LC-MS/MS analysis; assay type: ADME, organism-based; design: dose 0.1 mg/kg, route iv; conditions: in vivo
[12] = Drug concentration in Sprague-Dawley rat brain at 1 mg/kg, po measured after 0.50 hr by LC-MS/MS analysis; assay type: ADME, organism-based; conditions: read-out: Ct
[13] = MRT (0 to infinity) in Sprague-Dawley rat at 0.1 mg/kg, iv by LC-MS/MS analysis; assay type: ADME, organism-based; conditions: in vivo
[14] = AUC (0 to infinity) in Sprague-Dawley rat at 0.1 mg/kg, iv by LC-MS/MS analysis; assay type: ADME, organism-based; design: dose 0.1 mg/kg, route iv; conditions: in vivo
[15] = Drug concentration in Sprague-Dawley rat brain at 1 mg/kg, po measured after 0.25 hr by LC-MS/MS analysis; assay type: ADME, organism-based; conditions: read-out: Ct
[16] = Toxicity in mouse assessed as histopathological changes in lung at 0.2 to 0.4 mg/kg, ip administered once daily for 2 weeks and measured after 15 days by H and E staining based analysis; assay type: organism-based; conditions: in vivo, 360 h, dose 0.2-0.4 mg/kg, time 15 day
[17] = Drug concentration in Sprague-Dawley rat plasma at 1 mg/kg, po measured after 24 hr by LC-MS/MS analysis; assay type: ADME, organism-based
[18] = Ratio of drug concentration in brain to plasma in Sprague-Dawley rat at 1 mg/kg, po measured after 2 hrs by LC-MS/MS analysis; assay type: ADME, organism-based; conditions: read-out: BPR
[19] = Ratio of drug concentration in brain to plasma in Sprague-Dawley rat at 1 mg/kg, po measured after 24 hrs by LC-MS/MS analysis; assay type: ADME, organism-based; conditions: read-out: BPR
[20] = MRT (0 to t) in Sprague-Dawley rat at 1 mg/kg, po by LC-MS/MS analysis; assay type: ADME, organism-based; conditions: in vivo
[21] = Drug concentration in Sprague-Dawley rat brain at 1 mg/kg, po measured after 8 hrs by LC-MS/MS analysis; assay type: ADME, organism-based; conditions: read-out: Ct
[22] = AUC (0 to t) in Sprague-Dawley rat at 1 mg/kg, po by LC-MS/MS analysis; assay type: ADME, organism-based; design: dose 1 mg/kg, route po; conditions: in vivo
[23] = Ratio of drug concentration in brain to plasma in Sprague-Dawley rat at 1 mg/kg, po measured after 0.50 hrs by LC-MS/MS analysis; assay type: ADME, organism-based; conditions: read-out: BPR
[24] = Ratio of drug concentration in brain to plasma in Sprague-Dawley rat at 1 mg/kg, po measured after 0.25 hrs by LC-MS/MS analysis; assay type: ADME, organism-based; conditions: read-out: BPR
[25] = Toxicity in mouse assessed as change in body weight at 0.2 to 0.4 mg/kg, ip administered once daily for 2 weeks; assay type: organism-based; conditions: in vivo, 336 h, dose 0.2-0.4 mg/kg
[26] = molecular target: T1, Glutamate receptor ionotropic, AMPA (Rattus norvegicus); experiment: Agonist activity at AMPA receptor in rat Primary neuron cells assessed as potentiation of s-AMPA induced calcium flux at 1 uM incubated for 1 hr by calcium 2+ influx assay relative to s-AMPA coupled TAK-137; assay type: cell-based; conditions: filed as agonist
[27] = Volume of distribution at steady state in Sprague-Dawley rat at 0.1 mg/kg, iv by LC-MS/MS analysis; assay type: ADME, organism-based; conditions: in vivo, read-out: Vdss
[28] = Drug concentration in Sprague-Dawley rat brain at 1 mg/kg, po measured after 1 hr by LC-MS/MS analysis; assay type: ADME, organism-based; conditions: read-out: Ct
[29] = Cmax in Sprague-Dawley rat at 0.1 mg/kg, iv by LC-MS/MS analysis; assay type: ADME, organism-based; design: dose 0.1 mg/kg, route iv; conditions: in vivo
[30] = Ratio of drug concentration in brain to plasma in Sprague-Dawley rat at 1 mg/kg, po measured after 4 hrs by LC-MS/MS analysis; assay type: ADME, organism-based; conditions: read-out: BPR
Mus musculus [31] = experiment: Antidepressant activity in chronic restraint induced depressive mouse assessed as rescue in immobility time at 0.03 to 0.05 mg/kg administered for 1 day after 14th day by forced swimming test; assay type: functional, organism-based; conditions: dose 0.03-0.05 mg/kg
[32] = Toxicity in mouse assessed as histopathological changes in kidney at 0.2 to 0.4 mg/kg, ip administered once daily for 2 weeks and measured after 15 days by H and E staining based analysis; assay type: organism-based; conditions: in vivo, 360 h, dose 0.2-0.4 mg/kg, time 15 day
[33] = Drug concentration in Sprague-Dawley rat brain at 1 mg/kg, po measured after 2 hrs by LC-MS/MS analysis; assay type: ADME, organism-based; conditions: read-out: Ct
[34] = Drug concentration in Sprague-Dawley rat plasma at 1 mg/kg, po measured after 0.50 hrs by LC-MS/MS analysis; assay type: ADME, organism-based
[35] = Drug concentration in Sprague-Dawley rat plasma at 1 mg/kg, po measured after 6 hr by LC-MS/MS analysis; assay type: ADME, organism-based
[36] = MRT (0 to t) in Sprague-Dawley rat at 0.1 mg/kg, iv by LC-MS/MS analysis; assay type: ADME, organism-based; conditions: in vivo
[37] = Drug concentration in Sprague-Dawley rat plasma at 1 mg/kg, po measured after 0.25 hrs by LC-MS/MS analysis; assay type: ADME, organism-based
Mus musculus [38] = experiment: Antidepressant activity in chronic restraint induced depressive mouse assessed as rescue in sucrose preference at 0.03 to 0.05 mg/kg administered for 2 days after 16th day by sucrose preference test; assay type: functional, organism-based; conditions: dose 0.03-0.05 mg/kg, time 2.0 day
[39] = molecular target: T1, Glutamate receptor ionotropic, AMPA (Rattus norvegicus); experiment: Agonist activity at AMPA receptor in rat Primary neuron cells relative to control; assay type: cell-based; conditions: filed as agonist
[40] = Drug concentration in Sprague-Dawley rat plasma at 1 mg/kg, po measured after 2 hr by LC-MS/MS analysis; assay type: ADME, organism-based

With O=S1(=O)NCc2cccc(-c3ccc(-c4ccccc4F)cc3)c2O1 the half-life [1] was 2.71 h, the Activity [2] was -2.6% and the EC50 [3] was 178 nM. The clearance [4] was 12.9 mL/min/kg, the Kp at 1 h [5] was 1.63 and the MRT inf [6] was 6.08 h. For the same molecule, the Activity [7] was “Non-Toxic”, the Tmax [8] was 0.5 h and the Tmax [9] was 4.8 min. For the same molecule, the Activity [10] was “Non-Toxic”, the AUC(0-t) [11] was 120 ng·h/mL and the concentration at 0.5 h [12] was 150 ng/g. It also gave an MRT inf [13] of 2.22 h, an AUC(0-inf) [14] of 129 ng·h/mL and a concentration at 0.25 h [15] of 74.7 ng/g. The Activity [16] was “Non-Toxic”, the concentration at 24 h [17] was 3.96 ng/mL and the Kp at 2 h [18] was 2.15. It also gave a Kp at 24 h [19] of 1.48, an MRT last [20] of 5.22 h and a concentration at 8 h [21] of 37.2 ng/g. For the same molecule, the AUC(0-t) [22] was 805 ng·h/mL, the Kp at 0.5 h [23] was 1.08 and the Kp at 0.25 h [24] was 0.59. The Activity [25] was “Non-Toxic”, the Activity [26] was 80.2% and the Vd [27] was 1.72 L/kg. It also gave a concentration at 1 h [28] of 217 ng/g, a Cmax [29] of 152 ng/mL and a Kp at 4 h [30] of 1.55. The Activity (Mus musculus [31]) was “Active”, the Activity [32] was “Non-Toxic” and the concentration at 2 h [33] was 133 ng/g. For the same molecule, the concentration at 0.5 h [34] was 142 ng/mL, the concentration at 6 h [35] was 54.2 ng/mL and the MRT last [36] was 1.46 h. For the same molecule, the concentration at 0.25 h [37] was 125 ng/mL, the Activity (Mus musculus [38]) was “Active” and the Emax [39] was 137%. The concentration at 2 h [40] was 62.3 ng/mL.
